Experimental findings from ChEMBL document CHEMBL5331051, “Cationic, amphipathic small molecules based on a triazine-piperazine-triazine scaffold as a new class of antimicrobial agents” (Eur J Med Chem, 2022) are described below.

Usually MIC stands for the lowest concentration found to suppress growth. As a reminder, the inhibition is the share of the control response that was lost under treatment.

The source made the active and inactive calls. The rule behind the calls is not given here.

The subject of assay [1] is Pseudomonas aeruginosa. The experiment in a line: Additive antibacterial activity against multidrug-resistant Pseudomonas aeruginosa CCARM 2095 strain assessed as bacterial growth inhibition by checkerboard assay. The assay is classed as functional.
Assay [2] deals with Pseudomonas aeruginosa. The assay can be described thus: Additive antibacterial activity against multidrug-resistant Pseudomonas aeruginosa CCARM 2095 strain assessed as fractional inhibitory concentration in presence of chloramphenicol by checkerboard assay. Type of assay: functional.
Assay [3] relates to Staphylococcus aureus. The assay can be described thus: Antibacterial activity against multidrug-resistant Staphylococcus aureus CCARM 3089 strain assessed as fractional inhibitory concentration index in presence of ciprofloxacin by checkerboard assay. Type of assay: functional.
In assay [4] the test system is Pseudomonas aeruginosa. The assay can be described thus: Additive antibacterial activity against multidrug-resistant Pseudomonas aeruginosa CCARM 2095 strain assessed as bacterial growth inhibition in presence of chloramphenicol by checkerboard assay. The assay is classed as functional.
Assay [5] relates to Pseudomonas aeruginosa. The experiment in a line: Additive antibacterial activity against multidrug-resistant Pseudomonas aeruginosa CCARM 2095 strain assessed as ciprofloxacin MIC by checkerboard assay. Type of assay: functional.
For assay [6], the system named is Pseudomonas aeruginosa. The assay can be described thus: Additive antibacterial activity against multidrug-resistant Pseudomonas aeruginosa CCARM 2095 strain assessed as fractional inhibitory concentration index in presence of chloramphenicol by checkerboard assay. Type of assay: functional.
The test system of assay [7] is Staphylococcus aureus. The assay can be described thus: Antibacterial activity against methicillin-resistant Staphylococcus aureus CCARM 3089 strain assessed as bacterial growth inhibition in presence of ciprofloxacin by checkerboard assay. The assay is classed as functional.
For assay [8], the system named is Pseudomonas aeruginosa. The assay can be described thus: Bacteriostatic activity against multidrug-resistant Pseudomonas aeruginosa CCARM 2095 measured after 24 hrs by time-kill kinetics assay. Type of assay: functional, organism-based.
Assay [9] has as its system Pseudomonas aeruginosa. The assay can be described thus: Bactericidal activity against multidrug-resistant Pseudomonas aeruginosa CCARM 2095 measured after 24 hrs by time-kill kinetics assay. Type of assay: functional, organism-based.
For assay [10], the system named is Pseudomonas aeruginosa. The assay can be described thus: Antibiofilm activity against multidrug-resistant Pseudomonas aeruginosa assessed as bacterial growth inhibition at 1 ug/ml relative to control. The assay is classed as functional.
For assay [11], the system named is Pseudomonas aeruginosa. The experiment in a line: Synergistic bactericidal activity against multidrug-resistant Pseudomonas aeruginosa CCARM 2095 at 0.5 times MIC measured after 60 mins in presence of 0.5 times MIC of chloramphenicol by time-kill kinetics assay. Type of assay: functional, organism-based.

On to `N=C(N)NCCNc1nc(NCCNC(=N)N)nc(N2CC(Cc3ccccc3)N(c3nc(NCCNC(=N)N)nc(NCCNC(=N)N)n3)CC2Cc2ccccc2)n1` (stereo unspecified), for which the MIC in [1] stood at 16 µg/mL; in assay [4], 8 µg/mL; in assay [5], 512 µg/mL; in assay [7], 8 µg/mL. Besides, in assay [2], the FIC was found to be 0.5. In addition, the “fractional inhibitory concentration index (FICI)” value is 1.25 in assay [3] and 0.75 in assay [6].

As to `NCCN(CCN)c1nc(NCc2ccccc2)nc(N2CC(Cc3ccccc3)N(c3nc(NCc4ccccc4)nc(N(CCN)CCN)n3)CC2Cc2ccccc2)n1` (stereo unspecified), the outcome in [8] and in assay [9] was inactive. Moreover, in [10], the inhibition at 1 µg/mL was 50%. In assay [11], the result was Active.
